From the supplement of paper PMC10307832

Tests used:
BAY61-3606 + Trametinib = compound: COC1=C(C=C(C=C1)C2=CC3=NC=CN3C(=N2)NC4=C(C=CC=N4)C(=O)N)OC [BAY61-3606] + CC(=O)Nc1cccc(-n2c(=O)n(C3CC3)c(=O)c3c(Nc4ccc(I)cc4F)n(C)c(=O)c(C)c32)c1 [Trametinib] (partner 0.02 µM); experiment: relative viability (nuclei count vs DMSO), 5 days (fraction); higher = more cells survive
How it was run: (§1)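 Relative viability divides the nuclei count in treated wells by that in vehicle wells. Lung cancer cell lines were seeded in 1536-well plates, dosed by pin tool the next day, and fixed and stained after 5 days in one step with final 0.05% Triton X-100, 1% formaldehyde and 1 ug/ml Hoechst. Dosing was a single drug or a fixed anchor-drug dose plus five library-drug doses (not always all listed) in √10 steps, and values are medians of duplicate plates imaged at 4×.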

Doxorubicin + Dasatinib = compound: COc1cccc2c1C(=O)c1c(O)c3c(c(O)c1C2=O)C[C@@](O)(C(=O)CO)C[C@@H]3O[C@H]1C[C@H](N)[C@H](O)[C@H](C)O1 [Doxorubicin] + Cc1nc(Nc2ncc(C(=O)Nc3c(C)cccc3Cl)s2)cc(N2CCN(CCO)CC2)n1 [Dasatinib] (partner 0.075 µM); experiment: as above
How it was run: as §1

Row | Cell Line | relative viability (BAY61-3606 + Trametinib; first compound 0.02 µM) | relative viability (BAY61-3606 + Trametinib; first compound 0.06325 µM) | relative viability (BAY61-3606 + Trametinib; first compound 0.2 µM) | relative viability (BAY61-3606 + Trametinib; first compound 0.6325 µM) | relative viability (BAY61-3606 + Trametinib; first compound 2 µM) | relative viability (Doxorubicin + Dasatinib; first compound 0.001 µM) | relative viability (Doxorubicin + Dasatinib; first compound 0.003162 µM) | relative viability (Doxorubicin + Dasatinib; first compound 0.01 µM) | relative viability (Doxorubicin + Dasatinib; first compound 0.03162 µM) | relative viability (Doxorubicin + Dasatinib; first compound 0.1 µM)
1 | NCI-H1734 | 0.708 | 0.667 | 0.636 | 0.671 | 0.568 | 0.517 | 0.572 | 0.385 | 0.317 | 0.255
2 | LCLC-97TM1 | 0.207 | 0.195 | 0.203 | 0.187 | 0.205 | 0.836 | 0.776 | 0.831 | 0.734 | 0.884
3 | HCC-366 | 0.345 | 0.319 | 0.327 | 0.268 | 0.21 |  | 0.757 | 0.614 | 0.238 | 0.212
4 | BEN | 1.21 | 1.01 | 1.11 | 1.21 | 1.2 | 0.366 | 0.296 | 0.329 | 0.294 | 0.418
5 | LCLC-103H | 0.708 | 0.715 | 0.666 | 0.654 | 0.65 | 0.507 | 0.6 | 0.446 | 0.381 | 0.552
6 | NCI-H441 | 0.491 | 0.417 | 0.363 | 0.483 | 0.371 |  | 0.585 | 0.332 | 0.166 | 0.213
7 | ChaGo-K-1 | 0.947 | 0.893 | 0.921 | 0.872 | 0.939 | 0.633 | 0.62 | 0.56 | 0.479 | 0.543
8 | COR-L 105 | 0.474 | 0.414 | 0.463 | 0.429 | 0.436 | 0.431 | 0.355 | 0.323 | 0.257 | 0.261
